For experiment [1], the system named is dorsal subcutaneous tissue of rats. Put plainly: Anaphylactic release of histamine by fragments of dorsal subcutaneous tissue. Further details: species or system Wistar rats. Particulars: ovoalbumin (300 μg/ml); for IC50: 60 min pre-treatment, read-out: IC50, inhibition of histamine release caused by anaphylatic stimulus. As to the method:
Female and male Wistar rats were used, weighing between 180 and 200 g, they came from Oswaldo Cruz Foundation's Center of Laboratory Animal Raising. The procedures involving the animals were examined and approved by Oswaldo Cruz Foundation's Committee of Animal Ethics (CEUA-FIOCRUZ, Port. 00085-02). The rats were sensitized with a subcutaneous injection containing a mixture of 50 μg ovalbumina plus 5 mg Al(OH)3. Fourteen days after the sensitization the animals were sacrificed in a chamber of CO2, to have their dorsal hypodermis removed which was fragmented into smaller segments of about 3 mm in a Petri dish containing PBS. The fragments were individually transferred to a dish with 48 pools containing 500 μl of Hanks with Ca^++ and Mg^++.
Five experimental groups were studied in quadruplicates:
I. Saline group, negative control, pools where the tissue was neither treated nor stimulated;
II. Ovoalbumin group, positive control, pools where the tissue was not treated but it was stimulated by ovoalbumin (300 μg/ml);
III. JM24-1 group, pools where the tissue was previously treated with JM24-1 before the stimulation with ovoalbumin (300 μg/ml);
IV. JM25-1 group, pools where the tissue was previously treated with JM25-1 before the stimulation with ovoalbumin (300 μg/ml);
V. JMF2-1 group, pools where the tissue was previously treated with JMF2-1 before the stimulation with ovoalbumin (300 μg/ml).
Treated and non-treated pools were kept at 37° C. in a metabolic incubator (atmosphere containing 95% O2 and 5% CO2) for 60 minutes before the antigenic challenge. After the addition of ovoalbumin (300 μg/ml) all the pools were incubated again in a metabolic oven for more than 60 minutes. After removal of tissue for drying and weighing, the culture medium was collected and acidified with perchloric acid 0.4 N being, after centrifugation 150×g for 10 min. stocked at −20° C. until the moment of fluorimetric quantifying of histamine, according to the previous work. The values were shown like nanograms of released histamine by mg of tissue (dry weight).

For experiment [2], the system named is isolated ileum of an experimental animal. The experiment is described as follows: Contraction of isolated ileum induced by histamine. The following applies: histamine (5 μM), average ±SEM, at least 3 animals; read-out: Stimulation with histamine IC50. How it is done:
Female and male experimental animals were used, weighing between 300 and 400 g, they came from Oswaldo Cruz Foundation's Center of Laboratory Animal Raising. The procedures involving the animals were examined and approved by Oswaldo Cruz Foundation's Committee of Animal Ethics (CEUA-FIOCRUZ, Licenca no. 00085-02). The animals were sensitized through a subcutanous injection with a mixture of 50 μg ovoalbumin and 5 mg Al(OH)3. From fourteen to thirty days after the sensitization, the experimental, animal was sacrificed in a chamber of carbonic gas to have its abdomen open and the location of the ileocecal valve. At this point, the intestine was sectioned and a segment of the small intestine, about 20 cm (equivalent to the ileum) was carefully removed and internally washed with a warmed solution (37° C.) of Tyrode (Composition in mM) (NaCl 137; KCl 2.7; NaH2PO4 0.42; NaHCO3 11.9; MgCl2 0.5; CaCl2 1.8; glucose 5.6) to remove the fecal content. […].
About 3-cm ileum fragments were vertically mounted in 10 ml glass cuvettes, immersed in Tyrode's solution at 37° C., aerated with carbogen (O2, 95% and CO2, 5%) and supplemented with atropine according to the standard procedure. The tissue had one of its ends tied to a rod while the other end was coupled with a transductor after the transference from the rod to the cuvette. The contractions were isotonically registered (basal tension of 1 g) with the support of a transductor of displacement-force connected to a computerized system to capture data. After a 30 minute period of balance, each segment was repeatedly stimulated by histamine (1 μM) until response stabilization. To induce anaphylatic contraction, ileum segments from sensitized experimental animals were stimulated by ovoalbumin (10 μg/ml). […]. The results were presented as a percentage of inhibition calculated in relation to the contractive effect obtained from stimulated and non-treated preparations.
Concentration-response data were adjusted through non-linear regression curves with the assistence of a graphics software (GraphPad Prism, USA). The concentration of an antagonist needed to inhibit the contractive response to inhibit the contractive response after stimulation by histamine or antigen at 50% (IC50) was used to compare the anti-spasmodic potency. The values expressed as an average ± standard error of the mean and statistically analysed through the test of analysis variance (ANOVA), followed by the Newman-Keuls-Student test.

The subject of experiment [3] is experimental animal trachea. The experiment is described as follows: Relaxation of trachea pre-contracted by anaphylactic stimulation (ovoalbumin). The following applies: pre-contracted with ovoalbumin (20 μg/ml), average±SEM, at least 3 animals; read-out: IC50, concentration necessary to relax in 50% the anaphylatic spasm of trachea. As to the method:
Female and male experimental animals were used, weighing between 300 and 400 g, they came from Oswaldo Cruz Foundation's Center of Laboratory Animal Raising. The procedures involving the animals were examined and approved by Oswaldo Cruz Foundation's Committee of Animal Ethics (CEUA-FIOCRUZ, License number 00085-02). The animals were sensitized through a subcutaneous injection with a mixture of 50 μg ovoalbumin and 5 mg Al(OH)3. Fourteen to thirty days after the sensitization, the experimental animal was sacrificed in a chamber of carbonic gas to have its trachea removed. The trachea was transferred to a Petri dish containing Krebs solution (composition in mM) (NaCl-119; […] NaHCO3-25; […] The total segment was divided into fragments of about 3 to 4 rings that were sectioned at the extreme ending, the muscular part of the trachea. Each fragment had one of its ends tied to a rod while the other end was connected to an isometric transductor (U Basile, Italy) after the transference from the rod to a 10 ml glass cuvette. […] The contractions were registered with the […] of a computerized system of data capture (Letica, Spain). […] The results were shown as a percentage of relaxation in relation to the plateau of the anaphylatic pre-contraction. Concentration-response data were adjusted through non-linear regression curves with the […] of a graphics software (GraphPad Prism, USA). […] The values were expressed as an average± standard error of the mean and statistically analysed through the test of analysis variance (ANOVA), followed by the Newman-Keuls-Student test.

Regarding `CCN(CC)CC(=O)Nc1c(C)cccc1C` [Lidocaine, 1-(2-(dyethylamine)N-dymethylfenyl)-acetamide, reference compound], the IC50 in experiment [1] is 4.5 µM; in experiment [2], 1410 ± 120 µM; in experiment [3] it was 1350 ± 20 µM.
Turning to `CCN(CC)CC(=O)Nc1cccc(C)c1C` [JM23-1, 2-dyethylamine-2′,3′-acetoxylidide], the “inhibition of anaphylactic histamine release, result in words” value in experiment [1] is “inactive”. Further, the figures for the IC50 in experiment [2] and in experiment [3] were 380 ± 60 µM and 220 ± 60 µM, respectively.
As to `CCN(CC)CC(=O)Nc1ccc(C)cc1C` [JM24-1, 2-dyethylamine-2′,4′-acetoxylidide], the “inhibition of anaphylactic histamine release, result in words” value in experiment [1] is “concentrations comparable to that of lidocaine”. Moreover, the IC50 came out at 6.46 µM in experiment [1], 310 ± 60 µM in experiment [2] and 30 µM in experiment [3].

The values above are taken from patent US8163803B2 (Fundação Oswaldo Cruz—FIOCRUZ, priority 2004, dated 2012).
